The source made the active and inactive calls. The rule behind the calls is not given here.
Tested on: CCRIS mutagenicity, Ames/micronucleus/aberration tests
Experiment: CCRIS mutagenicity studies
[1] = Test System: AMES SALMONELLA TYPHIMURIUM, Strain/Indicator: TA1537, Metabolic Activation: NONE, Method: PREINCUBATION
[2] = Test System: AMES SALMONELLA TYPHIMURIUM, Strain/Indicator: TA98, Metabolic Activation: RAT, LIVER, S-9, AROCLOR 1254, Method: STANDARD PLATE
[3] = Test System: AMES SALMONELLA TYPHIMURIUM, Strain/Indicator: TA100, Metabolic Activation: RAT, LIVER, S-9, AROCLOR 1254, Method: STANDARD PLATE
[4] = Test System: AMES SALMONELLA TYPHIMURIUM, Strain/Indicator: TA98, Metabolic Activation: NONE, Method: STANDARD PLATE
[5] = Test System: AMES SALMONELLA TYPHIMURIUM, Strain/Indicator: TA100, Metabolic Activation: NONE, Method: STANDARD PLATE
[6] = Test System: AMES SALMONELLA TYPHIMURIUM, Strain/Indicator: TA1535, Metabolic Activation: NONE, Method: STANDARD PLATE
[7] = Test System: AMES SALMONELLA TYPHIMURIUM, Strain/Indicator: TA1535, Metabolic Activation: RAT, LIVER, S-9, AROCLOR 1254, Method: STANDARD PLATE
[8] = Test System: AMES SALMONELLA TYPHIMURIUM, Strain/Indicator: TA1537, Metabolic Activation: NONE, Method: STANDARD PLATE
[9] = Test System: AMES SALMONELLA TYPHIMURIUM, Strain/Indicator: TA1537, Metabolic Activation: RAT, LIVER, S-9, AROCLOR 1254, Method: STANDARD PLATE

O=[N+]([O-])c1cccc(O)c1
mutagenic call (Test System: AMES SALMONELLA TYPHIMURIUM, Strain/Indicator: TA97, Metabolic Activation: HAMSTER, LIVER, S-9, AROCLOR 1254 (10%), Method: PREINCUBATION): inactive; negative | mutagenic call (Test System: AMES SALMONELLA TYPHIMURIUM, Strain/Indicator: TA97, Metabolic Activation: NONE, Method: PREINCUBATION): inactive; negative | mutagenic call (Test System: AMES SALMONELLA TYPHIMURIUM, Strain/Indicator: TA97, Metabolic Activation: RAT, LIVER, S-9, AROCLOR 1254 (10%), Method: PREINCUBATION): inactive; negative | mutagenic call (Test System: AMES SALMONELLA TYPHIMURIUM, Strain/Indicator: TA98, Metabolic Activation: HAMSTER, LIVER, S-9, AROCLOR 1254 (10%), Method: PREINCUBATION): inactive; negative | mutagenic call (Test System: AMES SALMONELLA TYPHIMURIUM, Strain/Indicator: TA98, Metabolic Activation: RAT, LIVER, S-9, AROCLOR 1254 (10%), Method: PREINCUBATION): inactive; negative | mutagenic call (Test System: AMES SALMONELLA TYPHIMURIUM, Strain/Indicator: TA98, Metabolic Activation: RAT, LIVER, S-9, KANECHLOR 500, Method: PREINCUBATION): active; positive | mutagenic call (Test System: AMES SALMONELLA TYPHIMURIUM, Strain/Indicator: TA98, Method: PREINCUBATION): inactive; negative | mutagenic call (Test System: AMES SALMONELLA TYPHIMURIUM, Strain/Indicator: TA100, Metabolic Activation: HAMSTER, LIVER, S-9, AROCLOR 1254 (10%), Method: PREINCUBATION): inactive; negative | mutagenic call (Test System: AMES SALMONELLA TYPHIMURIUM, Strain/Indicator: TA100, Metabolic Activation: RAT, LIVER, S-9, AROCLOR 1254 (5, 10 OR 30%), Method: PREINCUBATION): inactive; negative | mutagenic call (Test System: AMES SALMONELLA TYPHIMURIUM, Strain/Indicator: TA100, Metabolic Activation: RAT, LIVER, S-9, KANECHLOR 500, Method: PREINCUBATION): active; positive | mutagenic call (Test System: AMES SALMONELLA TYPHIMURIUM, Strain/Indicator: TA100, Method: PREINCUBATION): inactive; negative | mutagenic call (Test System: AMES SALMONELLA TYPHIMURIUM, Strain/Indicator: TA1535, Metabolic Activation: HAMSTER, LIVER, S-9, AROCLOR 1254 (10%), Method: PREINCUBATION): inactive; negative | mutagenic call (Test System: AMES SALMONELLA TYPHIMURIUM, Strain/Indicator: TA1535, Metabolic Activation: NONE, Method: PREINCUBATION): inactive; negative | mutagenic call (Test System: AMES SALMONELLA TYPHIMURIUM, Strain/Indicator: TA1535, Metabolic Activation: RAT, LIVER, S-9, AROCLOR 1254 (10%), Method: PREINCUBATION): inactive; negative | mutagenic call (Test System: AMES SALMONELLA TYPHIMURIUM, Strain/Indicator: TA1535, Method: PREINCUBATION): inactive; negative | mutagenic call [1]: inactive; negative | mutagenic call (Test System: AMES SALMONELLA TYPHIMURIUM, Strain/Indicator: TA1537, Method: PREINCUBATION): inactive; negative | mutagenic call (Test System: AMES SALMONELLA TYPHIMURIUM, Strain/Indicator: TA1538, Metabolic Activation: NONE, Method: PREINCUBATION): inactive; negative | mutagenic call (Test System: AMES SALMONELLA TYPHIMURIUM, Strain/Indicator: TA1538, Method: PREINCUBATION): inactive; negative

Cc1nn(C)c(NC(=O)CNCCCN2CCCCC2C)c1C(=O)c1ccccc1F (centres undefined)
mutagenic call (Test System: AMES SALMONELLA TYPHIMURIUM, Strain/Indicator: TA98, Metabolic Activation: RAT, LIVER, S-9, AROCLOR 1254, Method: PREINCUBATION): active; positive | mutagenic call [2]: inactive; negative | mutagenic call (Test System: AMES SALMONELLA TYPHIMURIUM, Strain/Indicator: TA100, Metabolic Activation: RAT, LIVER, S-9, AROCLOR 1254, Method: PREINCUBATION): active; positive | mutagenic call [3]: inactive; negative

CS(=O)(=O)n1ncc(Cl)c(Cl)c1=O
mutagenic call [4]: inactive; negative | mutagenic call [2]: inactive; negative | mutagenic call [5]: active; positive | mutagenic call [3]: active; positive | mutagenic call [6]: inactive; negative | mutagenic call [7]: inactive; negative | mutagenic call [8]: inactive; negative | mutagenic call [9]: inactive; negative

BrCCCCCBr
mutagenic call (Test System: AMES SALMONELLA TYPHIMURIUM, Strain/Indicator: TA98, Metabolic Activation: NONE, Method: PREINCUBATION): inactive; negative | mutagenic call (Test System: AMES SALMONELLA TYPHIMURIUM, Strain/Indicator: TA98, Metabolic Activation: RAT LIVER S-9, PHENOBARBITAL AND BETA-NAPHTHOFLAVONE, Method: PREINCUBATION): inactive; negative | mutagenic call (Test System: AMES SALMONELLA TYPHIMURIUM, Strain/Indicator: TA100, Metabolic Activation: NONE, Method: PREINCUBATION): inactive; negative | mutagenic call (Test System: AMES SALMONELLA TYPHIMURIUM, Strain/Indicator: TA100, Metabolic Activation: RAT LIVER S-9, PHENOBARBITAL AND BETA-NAPHTHOFLAVONE, Method: PREINCUBATION): inactive; negative | mutagenic call [1]: inactive; negative | mutagenic call (Test System: AMES SALMONELLA TYPHIMURIUM, Strain/Indicator: TA1537, Metabolic Activation: RAT LIVER S-9, PHENOBARBITAL AND BETA-NAPHTHOFLAVONE, Method: PREINCUBATION): inactive; negative

CCCCOC(=O)CC(CC(=O)OCCCC)(OC(C)=O)C(=O)OCCCC
mutagenic call (Test System: AMES SALMONELLA TYPHIMURIUM, Strain/Indicator: TA98, Metabolic Activation: HAMSTER, LIVER, S-9, AROCLOR 1254, Method: STANDARD PLATE): inactive; negative | mutagenic call [4]: inactive; negative | mutagenic call [2]: inactive; negative | mutagenic call (Test System: AMES SALMONELLA TYPHIMURIUM, Strain/Indicator: TA100, Metabolic Activation: HAMSTER, LIVER, S-9, AROCLOR 1254, Method: STANDARD PLATE): inactive; negative | mutagenic call [5]: inactive; negative | mutagenic call [3]: inactive; negative | mutagenic call (Test System: AMES SALMONELLA TYPHIMURIUM, Strain/Indicator: TA1535, Metabolic Activation: HAMSTER, LIVER, S-9, AROCLOR 1254, Method: STANDARD PLATE): inactive; negative | mutagenic call [6]: inactive; negative | mutagenic call [7]: inactive; negative | mutagenic call (Test System: AMES SALMONELLA TYPHIMURIUM, Strain/Indicator: TA1537, Metabolic Activation: HAMSTER, LIVER, S-9, AROCLOR 1254, Method: STANDARD PLATE): inactive; negative | mutagenic call [8]: inactive; negative | mutagenic call [9]: inactive; negative | mutagenic call (Test System: AMES SALMONELLA TYPHIMURIUM, Strain/Indicator: TA1538, Metabolic Activation: HAMSTER, LIVER, S-9, AROCLOR 1254, Method: STANDARD PLATE): inactive; negative | mutagenic call (Test System: AMES SALMONELLA TYPHIMURIUM, Strain/Indicator: TA1538, Metabolic Activation: NONE, Method: STANDARD PLATE): inactive; negative | mutagenic call (Test System: AMES SALMONELLA TYPHIMURIUM, Strain/Indicator: TA1538, Metabolic Activation: RAT, LIVER, S-9, AROCLOR 1254, Method: STANDARD PLATE): inactive; negative | mutagenic call (Test System: MOUSE LYMPHOMA, Strain/Indicator: L5178Y (TK+/TK-), Metabolic Activation: NONE, Method: SUSPENSION/PLATE): inactive; negative. reevaluation of results: inconclusive | mutagenic call (Test System: MOUSE LYMPHOMA, Strain/Indicator: L5178Y (TK+/TK-), Metabolic Activation: RAT, LIVER, S-9, AROCLOR 1254, Method: SUSPENSION/PLATE): inactive; negative. reevaluation of results: negative
